Series [1] in a line: Humidity stress experiments at 58% relative humidity. It is filed as physicochemical. Particulars: for Observations after humidity stress: 58% RH; for Physical state after humidity stress: 58% relative humidity for 4 or 10 days. An excerpt: A sample of this enterostatin acetate, 1-hydroxy-2-naphthoic acid co-complex of the invention was stressed at 58% relative humidity for 4 or 10 days.
A sample of this enterostatin chloride, 1-hydroxy-2-naphthoic acid co-complex of the invention was stressed at 58% relative humidity for 4 or 10 days.
A sample of each co-complex of the above examples was stressed at 58% relative humidity for either 4 or 10 days.
The cocrystal guests piperazine and 1-OH-2-napthoic acid were stressed at 58% relative humidity.

Series [2] in a line: Moisture balance (weight change with relative humidity). It is filed as physicochemical. The method, then:
Analytical techniques discussed below were conventional unless otherwise specified. In particular, differential scanning calorimetry and moisture balance experiments were carried out according to standard techniques. NMR was in D2O.
FIG. 3 provides moisture balance of this enterostatin acetate, 1-hydroxy-2-naphthoic acid co-complex of the invention.

Here are results for six compounds from patent publication US20070149457A1, “Stable solid forms of enterostatin” (priority 2005, published 2007).

“Enterostatin Acetate, 1-Hydroxy-2-naphthoic Acid [Example 2]”: the “Observations after humidity stress” value in series [1] (4 days) is recorded as “Bits, broken glass”. The “Physical state after humidity stress” value in series [1] is “remained solid”. In series [2] (from 5 to 95% relative humidity), the “weight gain (moisture balance)” value is 22%. Moreover, the “weight loss (moisture balance)” value in series [2] (from 95 to 5% relative humidity) is on record as 24%.

“Enterostatin Chloride, 1-Hydroxy-2-naphthoic Acid [Example 3]”: the “Observations after humidity stress” value in series [1] (4 days) was “Irregulars, chunks”. Further, the “Physical state after humidity stress” value in series [1] is “remained solid”.

Turning to “Enterostatin Sulfate, Hippuric Acid [Example 7]”, the “Observations after humidity stress” value in series [1] (10 days) is given as “Tacky white goo”.

`C1CNCCN1` [Piperazine, reference compound]: the “Observations after humidity stress” value in series [1] (5 days) and in series [1] (14 days) was “Oil puddle” in each case.

With `O=C(O)c1ccc2ccccc2c1O` [1-OH-2-napthoic acid, reference compound], the “Observations after humidity stress” value in series [1] (14 days) is listed as “Light brown chunks”; in series [1] (14 days, listed as 1-OH-2-napthoic) it was “remained a solid”.

As to “Enterostatin Chloride, Camphoric Acid [Example 5]”, the “Observations after humidity stress” value in series [1] (10 days) was “Deliquesced”.
